From patent US20260001883A1, “5H-PYRROLO[2,3-D]PYRIMIDIN-6(7H)-ONE AND CRYSTAL OF SALT THEREOF” (priority 2022, published 2026)
Where a name gives a salt, the structure may show the parent alone.

What was measured:
Format in all cases: physicochemical
[1] = Solid state stability test (preservation stability, 70° C./75% RH, 2 weeks); conditions: for Appearance change / Total amount of analogous substances (%) 70° C./75% RH (closed system) / Total amount of analogous substances (%) 70° C./75% RH (open system) / amount of analogous substances after preservation (in words) / Powder X-ray diffraction pattern (change after preservation): after 2 weeks at 70° C./75% RH; for Total amount of analogous substances (%) 70° C./75% RH (closed system) / Total amount of analogous substances (%) 70° C./75% RH (open system) / Total amount of analogous substances (%) Initial value: HPLC; for Total amount of analogous substances (%) Initial value: before preservation, UV 220 nm
Description: The preservation stability of each of the type I crystal, type II crystal, and type III crystal of the free base of Compound (I), which were produced according to the methods described in Examples 1, 2 and 3 above, respectively, was tested under the following conditions. • Preservation conditions: 70° C./75% RH (open system and closed system) • Measuring point: 2 weeks • Preserved amount: about 50 mg • Preservation container: brown glass bottle
The powder X-ray diffraction of the sample after preservation was measured according to the aforementioned method. A change in the amount of analogous substances (the amount of substances detected other than Compound (I)) was measured by weighing out about 1 mg of the sample, dissolving it in about 5 mL of a water/acetonitrile mixed solution (1:1), accurately measuring 5 μL of this solution, and analyzing it by HPLC using the following method. • Column: InertSustain C18, 4.6×150 mm, 3 μm • Column temperature: 40° C. • Column flow rate: 1.0 mL/min • Mobile phase: A—10 mM phosphate buffer (pH 5.5)/acetonitrile (9:1); B—acetonitrile • Detection UV: 220 nm • Gradient: […]
(§1) The crystal of the hydrochloride of Compound (I), the crystal of the maleate of Compound (I), the crystal of ½ malate of Compound (I), and the crystal of the acetate of Compound (I),which were produced according to the methods described in Example 4, Example 5, Comparative Example 1, and Comparative Example 2, were tested in terms of preservation stability under the conditions of Test Example 1.

[2] = Heat stability test (powder X-ray diffraction under heating to 210° C.); conditions: heating from 25° C. to 210° C.
Description: Using the free base type I crystal, the free base type II crystal, and the free base type III crystal, which were produced according to the methods described in Examples 1, 2 and 3 above, a heat stability test was carried out.
Powder X-ray diffraction measurement was carried out at 25° C., and the temperature was raised to 50° C. over 30 minutes, after which powder X-ray diffraction measurement was carried out. Thereafter, the temperature was further raised to 210° C. at 10° C./10 minutes, and powder X-ray diffraction measurement was then carried out. After that, the temperature was lowered to 25° C. over 30 minutes, and powder X-ray diffraction measurement was then carried out.

[3] = Dynamic moisture adsorption/desorption test; conditions: 25° C., humidity 5% RH to 95% RH and back to 5% RH
Description: For the test, a VTI-SA+ (TA Instruments) was used. About 10 mg of each of a free base type I crystal, a free base type II crystal, and a […] was weighed, and was placed in a pan. While confirming that the weight fluctuation was within 0.0100% in 5 minutes, the temperature was raised up to 60° C. at 1 degree per minute. If the weight fluctuated, the temperature was maintained for a maximum of 5 hours before proceeding to the next step. Thereafter, the temperature was lowered to 25° C., and the humidity was raised from 5% RH to 95% RH, and was then lowered to 5% RH. At that time, the humidity was changed by 5% RH while confirming that the weight fluctuation was within 0.00100% in 5 minutes. If the weight fluctuated, the humidity was maintained for a maximum of 2 hours before proceeding to the next step.
as §1, with “2.” for “1.”

[4] = listed as crystal of the acetate of Compound (I)
[5] = listed as crystal of the ½ malate of Compound (I)
[6] = listed as free base type II crystal
[7] = listed as crystal of the hydrochloride of Compound (I)
[8] = listed as free base type III crystal
[9] = listed as crystal of the maleate of Compound (I)

| Compound | Appearance change [1] | Total amount of analogous substances (%) 70° C./75% RH (closed system) [1] [%] | Total amount of analogous substances (%) 70° C./75% RH (open system) [1] [%] | Total amount of analogous substances (%) Initial value [1] [%] | Powder X-ray diffraction pattern (change after preservation) [1] | also measured |
| --- | --- | --- | --- | --- | --- | --- |
| CC(C)(C)NCCNc1ccc(-c2nnc(C(F)(F)F)o2)nc1C1CCN(c2ncnc3c2C(C)(C)C(=O)N3)CC1 [Crystal of acetate, 4-(4-(3-((2-(tert-butylamino)ethyl)amino)-6-(5-(trifluoromethyl)-1,3,4-oxadiazol-2-yl)pyridin-2-yl)piperidin-1-yl)-5,5-dimethyl-5H-pyrrolo[2,3-d]pyrimidin-6(7H)-one] | No significant | 0.3 | 1.1 | 0.3 | – | Appearance change [1, 4]: no change in appearance; amount of analogous substances after preservation (in words) [1, 4]: large amounts of analogous substances |
| CC(C)(C)NCCNc1ccc(-c2nnc(C(F)(F)F)o2)nc1C1CCN(c2ncnc3c2C(C)(C)C(=O)N3)CC1 [Crystal of hydrochloride, 4-(4-(3-((2-(tert-butylamino)ethyl)amino)-6-(5-(trifluoromethyl)-1,3,4-oxadiazol-2-yl)pyridin-2-yl)piperidin-1-yl)-5,5-dimethyl-5H-pyrrolo[2,3-d]pyrimidin-6(7H)-one] | No significant | 0.2 | 0.2 | 0.2 | No significant | Appearance change [1, 7]: no change was observed in appearance; Powder X-ray diffraction pattern (change after preservation) [1, 7]: no changes; amount of analogous substances after preservation (in words) [1, 7]: only small amounts of analogous substances; hygroscopicity (moisture adsorption/desorption isotherm) ([3]; listed as crystal of the hydrochloride): lower hygroscopicity than the crystal of the ½ malate |
| CC(C)(C)NCCNc1ccc(-c2nnc(C(F)(F)F)o2)nc1C1CCN(c2ncnc3c2C(C)(C)C(=O)N3)CC1 [Crystal of maleate, 4-(4-(3-((2-(tert-butylamino)ethyl)amino)-6-(5-(trifluoromethyl)-1,3,4-oxadiazol-2-yl)pyridin-2-yl)piperidin-1-yl)-5,5-dimethyl-5H-pyrrolo[2,3-d]pyrimidin-6(7H)-one] | No significant | 0.1 | 0.1 | 0.1 | No significant | Appearance change [1, 9]: no change was observed in appearance; Powder X-ray diffraction pattern (change after preservation) [1, 9]: no changes; amount of analogous substances after preservation (in words) [1, 9]: only small amounts of analogous substances; hygroscopicity (moisture adsorption/desorption isotherm) ([3]; listed as crystal of the maleate): low hygroscopicity |

Continued, in another order:

| Appearance change [1] | Total amount of analogous substances (%) 70° C./75% RH (closed system) [1] [%] | Total amount of analogous substances (%) 70° C./75% RH (open system) [1] [%] | Total amount of analogous substances (%) Initial value [1] [%] | Powder X-ray diffraction pattern (change after preservation) [1] | Compound | also measured |
| --- | --- | --- | --- | --- | --- | --- |
| No significant | 5.2 | 64.0 | 0.4 | – | CC(C)(C)NCCNc1ccc(-c2nnc(C(F)(F)F)o2)nc1C1CCN(c2ncnc3c2C(C)(C)C(=O)N3)CC1 [Crystal of ½ malate, 4-(4-(3-((2-(tert-butylamino)ethyl)amino)-6-(5-(trifluoromethyl)-1,3,4-oxadiazol-2-yl)pyridin-2-yl)piperidin-1-yl)-5,5-dimethyl-5H-pyrrolo[2,3-d]pyrimidin-6(7H)-one] | Appearance change [1, 5]: no change in appearance; amount of analogous substances after preservation (in words) [1, 5]: large amounts of analogous substances |
| No significant | 0.5 | 0.6 | 0.5 | No significant | CC(C)(C)NCCNc1ccc(-c2nnc(C(F)(F)F)o2)nc1C1CCN(c2ncnc3c2C(C)(C)C(=O)N3)CC1 [Free body type II crystal, 4-(4-(3-((2-(tert-butylamino)ethyl)amino)-6-(5-(trifluoromethyl)-1,3,4-oxadiazol-2-yl)pyridin-2-yl)piperidin-1-yl)-5,5-dimethyl-5H-pyrrolo[2,3-d]pyrimidin-6(7H)-one] | Powder X-ray diffraction pattern (change after preservation) ([1]; listed as type II crystal): no change was observed; change of crystal form under heating (powder X-ray diffraction) [2, 6]: new peaks appeared; hygroscopicity (moisture adsorption/desorption isotherm) [3, 6]: low hygroscopicity |
| No significant | 0.7 | 0.8 | 0.5 | No significant | CC(C)(C)NCCNc1ccc(-c2nnc(C(F)(F)F)o2)nc1C1CCN(c2ncnc3c2C(C)(C)C(=O)N3)CC1 [Frcc body type III crystal, 4-(4-(3-((2-(tert-butylamino)ethyl)amino)-6-(5-(trifluoromethyl)-1,3,4-oxadiazol-2-yl)pyridin-2-yl)piperidin-1-yl)-5,5-dimethyl-5H-pyrrolo[2,3-d]pyrimidin-6(7H)-one] | Powder X-ray diffraction pattern (change after preservation) ([1]; listed as type III crystal): no change was observed; change of crystal form under heating (powder X-ray diffraction) [2, 8]: new peaks appeared; hygroscopicity (moisture adsorption/desorption isotherm) [3]: excellent low hygroscopicity; hygroscopicity (moisture adsorption/desorption isotherm) [3, 8]: low hygroscopicity |
| No significant | 0.5 | 0.5 | 0.6 | No significant | CC(C)(C)NCCNc1ccc(-c2nnc(C(F)(F)F)o2)nc1C1CCN(c2ncnc3c2C(C)(C)C(=O)N3)CC1 [Free body type I crystal, 4-(4-(3-((2-(tert-butylamino)ethyl)amino)-6-(5-(trifluoromethyl)-1,3,4-oxadiazol-2-yl)pyridin-2-yl)piperidin-1-yl)-5,5-dimethyl-5H-pyrrolo[2,3-d]pyrimidin-6(7H)-one] | Powder X-ray diffraction pattern (change after preservation) ([1]; listed as type I crystal): no change was observed; change of crystal form under heating (powder X-ray diffraction) ([2]; listed as free base type 1 crystal): no changes were observed in the crystal form; hygroscopicity (moisture adsorption/desorption isotherm) [3]: excellent low hygroscopicity; hygroscopicity (moisture adsorption/desorption isotherm) ([3]; listed as free base type I crystal): low hygroscopicity |
